Data as given in ChEMBL document CHEMBL5465560, “Selectivity Literature for EUbOPEN Chemogenomic Library” (2024).

Legend:
Focal adhesion kinase 1 = Focal adhesion kinase 1 (Homo sapiens, UniProt Q05397); experiment: Selectivity interaction (KinomeScan (DiscoverX)) EUB0000229b PTK2; details: at 10 µM
[1] = system: Tyrosine-protein kinase ABL1 (Homo sapiens), P00519 [Q252H]; experiment: (§1) Selectivity interaction (KinomeScan (DiscoverX)) EUB0000229b ABL1; details: at 1 µM
[2] = system: Tyrosine-protein kinase ABL1 (Homo sapiens), P00519 [H396P]; experiment: as §1; details: at 1 µM
[3] = system: Tyrosine-protein kinase ABL1 (Homo sapiens), P00519 [Y253F]; experiment: as §1; details: at 1 µM
[4] = system: Tyrosine-protein kinase ABL1 (Homo sapiens), P00519 [F317I]; experiment: as §1; details: at 1 µM
[5] = system: Tyrosine-protein kinase ABL1 (Homo sapiens), P00519 [F317L]; experiment: as §1; details: at 1 µM
[6] = system: Tyrosine-protein kinase ABL1 (Homo sapiens), P00519 [M351T]; experiment: as §1; details: at 1 µM
[7] = system: Tyrosine-protein kinase ABL1 (Homo sapiens), P00519 [T315I]; experiment: as §1; details: at 1 µM
[8] = target: Cyclin-dependent kinase 14 (Homo sapiens) (UniProt O94921); experiment: Selectivity interaction (KinomeScan (DiscoverX)) EUB0000229b CDK14; details: at 10 µM
[9] = target: B1 bradykinin receptor (Homo sapiens) (UniProt P46663); experiment: Selectivity interaction (Eurofins CEREP Diversity Profile (receptors and ion channels)) EUB0000279b BDKRB1; details: at 10 µM
[10] = target: Proto-oncogene tyrosine-protein kinase Src (Homo sapiens, UniProt P12931); experiment: Selectivity interaction (Kinase panel (DSF assay)) EUB0001558a SRC
[11] = target: Mitogen-activated protein kinase 9 (Homo sapiens, UniProt P45984); experiment: Selectivity interaction (Kinase panel (DSF assay)) EUB0001558a MAPK9
[12] = target: Cyclin-dependent kinase 7 (Homo sapiens, UniProt P50613); experiment: Selectivity interaction (Kinase panel (KiNativ target engagement assay in Jurkat cells)) EUB0001635a CDK7; type: cell-based; details: Selectivity number of off-targets 0.0, Selectivity number of targets 233.0, Source Knowledge https://www.sciencedirect.com/science/article/pii/S2451945619300674?via%3Dihub, at 1 µM
[13] = target: Tyrosine-protein kinase Yes (Homo sapiens) (UniProt P07947); experiment: Selectivity interaction (Kinase panel (Invitrogen)) EUB0000639a YES1; details: at 200 nM
[14] = target: T1, Dual serine/threonine and tyrosine protein kinase (Homo sapiens) (UniProt Q6XUX3); experiment: Selectivity interaction (KinomeScan (DiscoverX)) EUB0000092b DSTYK; details: at 10 µM
T1 sequence (whole entry): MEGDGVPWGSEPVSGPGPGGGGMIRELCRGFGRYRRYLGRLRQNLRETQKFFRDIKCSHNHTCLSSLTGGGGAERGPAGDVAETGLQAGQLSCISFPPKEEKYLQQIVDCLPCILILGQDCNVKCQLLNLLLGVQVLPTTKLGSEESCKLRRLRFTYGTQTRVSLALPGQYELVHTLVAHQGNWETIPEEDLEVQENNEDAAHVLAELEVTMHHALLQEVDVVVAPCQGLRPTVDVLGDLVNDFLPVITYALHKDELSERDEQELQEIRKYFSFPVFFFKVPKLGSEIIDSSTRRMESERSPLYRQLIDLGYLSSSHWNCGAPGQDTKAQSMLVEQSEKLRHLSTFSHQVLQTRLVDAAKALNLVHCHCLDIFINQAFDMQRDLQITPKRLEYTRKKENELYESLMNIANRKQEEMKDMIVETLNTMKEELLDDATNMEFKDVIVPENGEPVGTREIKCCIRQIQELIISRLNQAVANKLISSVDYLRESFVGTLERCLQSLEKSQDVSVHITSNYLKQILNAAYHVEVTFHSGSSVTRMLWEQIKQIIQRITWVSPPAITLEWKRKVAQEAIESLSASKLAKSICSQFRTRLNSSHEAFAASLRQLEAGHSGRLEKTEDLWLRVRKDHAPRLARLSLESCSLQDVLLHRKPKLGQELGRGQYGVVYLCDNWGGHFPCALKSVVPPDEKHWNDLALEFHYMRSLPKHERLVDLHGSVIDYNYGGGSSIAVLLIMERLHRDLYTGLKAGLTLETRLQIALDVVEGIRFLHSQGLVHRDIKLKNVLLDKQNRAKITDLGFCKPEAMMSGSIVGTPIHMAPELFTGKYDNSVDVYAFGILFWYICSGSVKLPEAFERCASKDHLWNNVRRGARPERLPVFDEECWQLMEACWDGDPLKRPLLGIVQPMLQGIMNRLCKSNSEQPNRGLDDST

[15] = target: Tyrosine-protein kinase Lck (Homo sapiens, UniProt P06239); experiment: Selectivity interaction (Upstate Kinase Profiler service (Millipore)) EUB0000056c LCK; details: at 1 µM
[16] = system: Receptor-type tyrosine-protein kinase FLT3 (Homo sapiens), P36888 [UNDEFINED MUTATION]; experiment: Selectivity interaction (KinomeScan (DiscoverX)) EUB0000695a FLT3; details: at 100 nM
[17] = target: Serine/threonine-protein kinase Chk2 (Homo sapiens) (UniProt O96017); experiment: Selectivity interaction (KinomeScan (DiscoverX)) EUB0000607a CHEK2; details: at 10 µM
[18] = target: G protein-coupled receptor kinase 4 (Homo sapiens) (UniProt P32298); experiment: Selectivity interaction (SelectScreen profiling (Invitrogen)) EUB0000607a GRK4; details: at 2 µM
[19] = target: Beta-2 adrenergic receptor (Homo sapiens, UniProt P07550); experiment: Selectivity interaction (Panel of kinases, GPCRs, ion channels and transporters (enzymatic assay)) EUB0000223bCl ADRB2
[20] = target: T2, Muscarinic acetylcholine receptor M1 (Homo sapiens) (UniProt P11229); experiment: Selectivity interaction (Panel of kinases, GPCRs, ion channels and transporters (enzymatic assay)) EUB0000223bCl CHRM1
T2 sequence (whole entry): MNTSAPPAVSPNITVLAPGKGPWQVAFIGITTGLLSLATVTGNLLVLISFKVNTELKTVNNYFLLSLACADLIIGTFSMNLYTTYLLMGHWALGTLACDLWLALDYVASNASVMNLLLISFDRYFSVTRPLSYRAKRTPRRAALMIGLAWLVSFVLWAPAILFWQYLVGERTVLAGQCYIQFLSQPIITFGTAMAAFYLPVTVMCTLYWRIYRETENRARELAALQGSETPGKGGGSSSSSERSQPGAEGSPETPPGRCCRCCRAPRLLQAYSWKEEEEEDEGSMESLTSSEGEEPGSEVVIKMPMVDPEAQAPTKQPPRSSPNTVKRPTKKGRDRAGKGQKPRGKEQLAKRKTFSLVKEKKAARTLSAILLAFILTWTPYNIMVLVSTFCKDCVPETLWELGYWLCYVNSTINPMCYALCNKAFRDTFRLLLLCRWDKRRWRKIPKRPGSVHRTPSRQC

[21] = target: RAC-beta serine/threonine-protein kinase (Homo sapiens) (UniProt P31751); experiment: Selectivity interaction (Kinase panel (Z-LYTE Assay)) EUB0001632a AKT2; details: at 10 µM
[22] = system: CDK12/Cyclin K (Homo sapiens), O75909+Q9NYV4 [R722C]; experiment: Selectivity interaction (ProQinase) EUB0000171b CDK12; type: protein-complex assay; details: at 5 µM

Mitogen-activated protein kinase 9, sequence (P45984 whole entry, looked up): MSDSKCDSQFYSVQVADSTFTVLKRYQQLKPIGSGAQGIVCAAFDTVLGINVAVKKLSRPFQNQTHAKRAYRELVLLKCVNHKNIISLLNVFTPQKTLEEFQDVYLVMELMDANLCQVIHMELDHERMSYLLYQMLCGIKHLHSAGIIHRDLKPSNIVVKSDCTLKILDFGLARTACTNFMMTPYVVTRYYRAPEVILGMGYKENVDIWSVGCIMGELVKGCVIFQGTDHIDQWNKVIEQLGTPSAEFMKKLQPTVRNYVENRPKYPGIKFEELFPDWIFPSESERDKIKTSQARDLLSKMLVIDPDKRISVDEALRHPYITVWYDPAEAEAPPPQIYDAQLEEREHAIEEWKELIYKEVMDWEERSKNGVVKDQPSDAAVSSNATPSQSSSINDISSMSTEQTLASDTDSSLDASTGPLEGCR
Receptor-type tyrosine-protein kinase FLT3 (Homo sapiens), P36888 [UNDEFINED MUTATION], sequence (P36888 whole entry, looked up, change not shown): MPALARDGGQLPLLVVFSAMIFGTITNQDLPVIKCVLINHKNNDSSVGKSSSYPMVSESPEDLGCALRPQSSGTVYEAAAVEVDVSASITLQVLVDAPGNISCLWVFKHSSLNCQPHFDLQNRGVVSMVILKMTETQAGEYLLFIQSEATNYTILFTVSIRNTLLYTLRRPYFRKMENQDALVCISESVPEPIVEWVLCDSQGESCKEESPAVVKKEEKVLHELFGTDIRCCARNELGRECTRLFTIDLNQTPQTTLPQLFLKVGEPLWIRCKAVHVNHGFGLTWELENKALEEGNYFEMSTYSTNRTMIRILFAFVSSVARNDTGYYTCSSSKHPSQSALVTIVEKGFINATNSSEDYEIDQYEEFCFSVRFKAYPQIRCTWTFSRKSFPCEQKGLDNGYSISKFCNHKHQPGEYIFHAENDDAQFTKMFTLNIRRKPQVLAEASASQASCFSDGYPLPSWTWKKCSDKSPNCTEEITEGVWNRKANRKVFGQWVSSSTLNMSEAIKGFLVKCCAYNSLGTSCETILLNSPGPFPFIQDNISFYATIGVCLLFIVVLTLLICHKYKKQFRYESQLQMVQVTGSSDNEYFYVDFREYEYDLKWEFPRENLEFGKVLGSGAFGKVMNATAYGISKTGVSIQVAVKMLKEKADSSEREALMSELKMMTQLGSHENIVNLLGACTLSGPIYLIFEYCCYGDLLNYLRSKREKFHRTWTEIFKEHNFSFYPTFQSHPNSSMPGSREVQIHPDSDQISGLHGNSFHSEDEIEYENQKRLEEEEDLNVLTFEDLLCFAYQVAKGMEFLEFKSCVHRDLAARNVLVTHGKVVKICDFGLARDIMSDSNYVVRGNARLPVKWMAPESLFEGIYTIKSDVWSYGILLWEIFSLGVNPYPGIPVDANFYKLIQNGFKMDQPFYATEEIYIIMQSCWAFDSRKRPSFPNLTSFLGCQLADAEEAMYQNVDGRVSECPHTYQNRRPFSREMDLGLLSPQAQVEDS
Focal adhesion kinase 1, sequence (Q05397 2-1052 limits assumed): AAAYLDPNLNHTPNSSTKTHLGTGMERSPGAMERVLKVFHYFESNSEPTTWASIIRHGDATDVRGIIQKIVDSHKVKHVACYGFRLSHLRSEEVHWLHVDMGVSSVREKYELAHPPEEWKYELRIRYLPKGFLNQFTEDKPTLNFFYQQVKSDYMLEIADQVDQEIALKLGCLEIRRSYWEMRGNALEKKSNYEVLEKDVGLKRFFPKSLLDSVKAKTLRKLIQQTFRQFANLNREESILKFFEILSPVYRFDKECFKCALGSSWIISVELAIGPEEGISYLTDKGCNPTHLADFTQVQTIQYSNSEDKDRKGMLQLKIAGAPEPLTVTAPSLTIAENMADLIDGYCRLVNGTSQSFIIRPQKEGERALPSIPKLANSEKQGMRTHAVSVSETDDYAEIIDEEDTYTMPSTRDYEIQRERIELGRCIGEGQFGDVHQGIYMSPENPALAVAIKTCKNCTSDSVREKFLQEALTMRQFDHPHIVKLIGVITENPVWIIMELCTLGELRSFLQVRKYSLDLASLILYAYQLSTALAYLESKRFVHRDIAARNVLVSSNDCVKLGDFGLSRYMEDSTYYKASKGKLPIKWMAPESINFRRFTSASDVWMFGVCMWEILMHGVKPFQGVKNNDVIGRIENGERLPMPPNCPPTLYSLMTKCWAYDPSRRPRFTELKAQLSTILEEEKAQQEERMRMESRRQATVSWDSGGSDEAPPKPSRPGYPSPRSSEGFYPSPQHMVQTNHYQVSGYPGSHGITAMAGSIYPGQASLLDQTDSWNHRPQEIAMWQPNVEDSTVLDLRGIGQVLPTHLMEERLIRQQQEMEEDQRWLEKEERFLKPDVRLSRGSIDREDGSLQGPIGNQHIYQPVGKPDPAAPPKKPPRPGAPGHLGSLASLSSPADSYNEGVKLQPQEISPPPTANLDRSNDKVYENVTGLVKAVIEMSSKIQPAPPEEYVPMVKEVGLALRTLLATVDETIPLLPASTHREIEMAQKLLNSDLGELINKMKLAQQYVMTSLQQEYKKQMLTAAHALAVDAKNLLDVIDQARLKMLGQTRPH
B1 bradykinin receptor (Homo sapiens), sequence (P46663 whole entry): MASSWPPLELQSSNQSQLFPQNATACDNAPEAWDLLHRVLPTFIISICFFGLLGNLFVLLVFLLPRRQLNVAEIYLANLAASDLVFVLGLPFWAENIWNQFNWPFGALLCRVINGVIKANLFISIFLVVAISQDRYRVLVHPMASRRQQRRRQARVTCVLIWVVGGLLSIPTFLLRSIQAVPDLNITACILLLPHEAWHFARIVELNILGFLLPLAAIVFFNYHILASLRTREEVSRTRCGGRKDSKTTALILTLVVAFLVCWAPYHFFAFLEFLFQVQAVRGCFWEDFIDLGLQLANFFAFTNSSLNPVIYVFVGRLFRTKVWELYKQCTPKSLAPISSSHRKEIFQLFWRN
Tyrosine-protein kinase Yes (Homo sapiens), sequence (P07947 2-543 limits assumed): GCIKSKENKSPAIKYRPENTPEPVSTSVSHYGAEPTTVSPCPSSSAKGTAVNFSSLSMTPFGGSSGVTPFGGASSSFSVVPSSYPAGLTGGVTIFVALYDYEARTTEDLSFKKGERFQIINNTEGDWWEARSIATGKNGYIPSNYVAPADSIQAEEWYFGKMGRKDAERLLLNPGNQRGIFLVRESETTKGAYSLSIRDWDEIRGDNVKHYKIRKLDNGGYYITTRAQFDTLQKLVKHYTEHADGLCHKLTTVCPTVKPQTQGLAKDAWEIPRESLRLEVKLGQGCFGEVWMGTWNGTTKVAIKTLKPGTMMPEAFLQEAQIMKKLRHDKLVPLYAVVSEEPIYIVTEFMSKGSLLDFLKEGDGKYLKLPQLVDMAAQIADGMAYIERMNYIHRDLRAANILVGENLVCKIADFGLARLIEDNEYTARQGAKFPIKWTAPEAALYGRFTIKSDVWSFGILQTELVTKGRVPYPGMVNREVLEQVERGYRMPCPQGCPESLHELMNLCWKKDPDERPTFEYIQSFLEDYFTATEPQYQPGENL
Serine/threonine-protein kinase Chk2 (Homo sapiens), sequence (O96017 whole entry): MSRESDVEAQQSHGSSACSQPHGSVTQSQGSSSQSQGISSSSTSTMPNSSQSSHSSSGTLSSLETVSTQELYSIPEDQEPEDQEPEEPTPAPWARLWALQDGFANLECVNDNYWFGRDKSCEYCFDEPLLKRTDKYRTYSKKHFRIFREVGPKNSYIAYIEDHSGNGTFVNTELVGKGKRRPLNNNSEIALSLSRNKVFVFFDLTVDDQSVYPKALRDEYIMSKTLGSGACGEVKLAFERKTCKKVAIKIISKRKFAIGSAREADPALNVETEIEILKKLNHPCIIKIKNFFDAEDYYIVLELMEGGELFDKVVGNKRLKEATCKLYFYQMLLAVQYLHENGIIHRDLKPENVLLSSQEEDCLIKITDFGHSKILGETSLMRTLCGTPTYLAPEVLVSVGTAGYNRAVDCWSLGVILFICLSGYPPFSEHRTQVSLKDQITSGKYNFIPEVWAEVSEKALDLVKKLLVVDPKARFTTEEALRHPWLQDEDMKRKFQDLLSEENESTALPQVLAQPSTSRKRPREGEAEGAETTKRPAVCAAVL
Cyclin-dependent kinase 7, sequence (P50613 whole entry): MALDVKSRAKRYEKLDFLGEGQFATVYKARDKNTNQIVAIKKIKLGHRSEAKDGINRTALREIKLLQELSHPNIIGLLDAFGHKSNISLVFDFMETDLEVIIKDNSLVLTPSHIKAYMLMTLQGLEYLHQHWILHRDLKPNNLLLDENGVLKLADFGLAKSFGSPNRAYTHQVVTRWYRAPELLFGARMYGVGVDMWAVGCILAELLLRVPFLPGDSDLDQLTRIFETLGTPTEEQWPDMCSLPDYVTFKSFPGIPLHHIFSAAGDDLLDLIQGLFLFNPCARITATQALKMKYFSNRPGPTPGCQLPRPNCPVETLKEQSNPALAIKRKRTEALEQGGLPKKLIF
G protein-coupled receptor kinase 4 (Homo sapiens), sequence (P32298 whole entry, looked up): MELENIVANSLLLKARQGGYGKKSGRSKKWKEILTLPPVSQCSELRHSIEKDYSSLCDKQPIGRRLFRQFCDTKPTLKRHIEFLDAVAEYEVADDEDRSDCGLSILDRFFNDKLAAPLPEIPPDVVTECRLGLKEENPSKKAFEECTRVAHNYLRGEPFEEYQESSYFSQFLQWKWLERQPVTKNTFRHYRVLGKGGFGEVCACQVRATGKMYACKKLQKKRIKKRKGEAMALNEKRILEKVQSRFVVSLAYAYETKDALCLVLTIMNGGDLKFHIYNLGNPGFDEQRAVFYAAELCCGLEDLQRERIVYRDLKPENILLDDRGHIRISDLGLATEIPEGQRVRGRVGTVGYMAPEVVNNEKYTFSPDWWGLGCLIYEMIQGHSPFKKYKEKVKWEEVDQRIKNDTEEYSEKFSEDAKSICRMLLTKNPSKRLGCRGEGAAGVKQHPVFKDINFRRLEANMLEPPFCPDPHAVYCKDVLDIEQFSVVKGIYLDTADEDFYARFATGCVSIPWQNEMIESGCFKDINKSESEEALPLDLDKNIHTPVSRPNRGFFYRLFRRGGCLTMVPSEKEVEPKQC

COc1cc(N(C)c2ccnc3ccc(C(F)(F)F)cc23)cc(OC)c1OC
% binding (Focal adhesion kinase 1): 100%
% binding [1]: 44%
% binding [2]: 41%
% binding [3]: 69%
% binding [4]: 93%
% binding [5]: 83%
% binding [6]: 92%
% binding [7]: 81%
% binding [8]: 92%

CC(=O)c1cc(-c2ccccc2OCC2CC2)c2ncccn12
% of control [9]: 95%

CC(C)(O)[C@H](F)CN1Cc2cc(NC(=O)c3cnn4cccnc34)c(N3CCOCC3)cc2C1=O
dTM [10]: 2 K
dTM [11]: 1.6 K

C=CC(=O)Nc1ccc(C(=O)Nc2[nH]nc3c2CN(C(=O)N[C@H](CN(C)C)c2ccccc2)C3(C)C)cc1
% of engagement [12]: 93.3%

CC[C@@H]1[C@H](F)C(=O)N[C@@H]1COc1nccc2cc(C(N)=O)c(OC)cc12 [ZIMLOVISERTIB]
% of inhibition [13]: 3.51%

CCC(=O)N1CCN(c2ccc(-n3c(=O)ccc4cnc5ccc(-c6cnc7ccccc7c6)cc5c43)cc2C(F)(F)F)CC1
% of control [14]: 28%

Cc1ccc(-c2ccc3c(ccc4sc5c(c43)NC[C@@H](C)NC5=O)n2)cn1
% of inhibition [15]: -3%

Cc1cc(F)c(C(=O)Nc2cccc(-c3nncn3C(C)C)n2)cc1-n1cnc(C2CC2)c1
% of control [16]: 76%

CNC(=O)Nc1ccc(-c2nc(N3CC4CCC(C3)O4)c3cnn(C4CCC5(CC4)OCCO5)c3n2)cc1
% of control [17]: 84%
% of inhibition [18]: -4%

COc1cc(C(=O)N2CC[C@@H](O)[C@@H](N)C2)cc2nc(-c3cc4ccccc4n3CC3CC3)n(C)c12
pXC50 [19]: < 4.5 M
pXC50 [20]: 4.9 M

Cn1cc(-n2cnc3c(NCc4nc5cc(Cl)c(Cl)cc5[nH]4)nc(N4CCOCC4)nc32)cn1
% of control [21]: -2.38%

C=CC(=O)Nc1cccc(C(=O)Nc2ccc(Nc3cc(-c4[nH]c(SC)nc4C)ccn3)cc2)c1
% of control [22]: 66%
